Data from US20260184706A1, “PHENYLSULFONAMIDE DERIVATIVES, PREPARATION METHOD THEREFOR, AND PHARMACEUTICAL COMPOSITION FOR PREVENTION OR TREATMENT OF CANCER CONTAINING SAME AS ACTIVE INGREDIENT” (Korea Research Institute of Chemical Technology, priority 2022, published 2026).

Columns and labels:
[1] = molecular target: recombinant human GCN2 protein (Homo sapiens, UniProt Q9P2K8); experiment: General control nonderepressible 2 (GCN2) inhibitory capacity, 33P-ATP filter assay; type: biochemical; conditions: recombinant human GCN2, 70 uM [gamma-33P-ATP], 40 minutes, room temperature
Chain of recombinant human GCN2 protein (Q9P2K8 whole entry): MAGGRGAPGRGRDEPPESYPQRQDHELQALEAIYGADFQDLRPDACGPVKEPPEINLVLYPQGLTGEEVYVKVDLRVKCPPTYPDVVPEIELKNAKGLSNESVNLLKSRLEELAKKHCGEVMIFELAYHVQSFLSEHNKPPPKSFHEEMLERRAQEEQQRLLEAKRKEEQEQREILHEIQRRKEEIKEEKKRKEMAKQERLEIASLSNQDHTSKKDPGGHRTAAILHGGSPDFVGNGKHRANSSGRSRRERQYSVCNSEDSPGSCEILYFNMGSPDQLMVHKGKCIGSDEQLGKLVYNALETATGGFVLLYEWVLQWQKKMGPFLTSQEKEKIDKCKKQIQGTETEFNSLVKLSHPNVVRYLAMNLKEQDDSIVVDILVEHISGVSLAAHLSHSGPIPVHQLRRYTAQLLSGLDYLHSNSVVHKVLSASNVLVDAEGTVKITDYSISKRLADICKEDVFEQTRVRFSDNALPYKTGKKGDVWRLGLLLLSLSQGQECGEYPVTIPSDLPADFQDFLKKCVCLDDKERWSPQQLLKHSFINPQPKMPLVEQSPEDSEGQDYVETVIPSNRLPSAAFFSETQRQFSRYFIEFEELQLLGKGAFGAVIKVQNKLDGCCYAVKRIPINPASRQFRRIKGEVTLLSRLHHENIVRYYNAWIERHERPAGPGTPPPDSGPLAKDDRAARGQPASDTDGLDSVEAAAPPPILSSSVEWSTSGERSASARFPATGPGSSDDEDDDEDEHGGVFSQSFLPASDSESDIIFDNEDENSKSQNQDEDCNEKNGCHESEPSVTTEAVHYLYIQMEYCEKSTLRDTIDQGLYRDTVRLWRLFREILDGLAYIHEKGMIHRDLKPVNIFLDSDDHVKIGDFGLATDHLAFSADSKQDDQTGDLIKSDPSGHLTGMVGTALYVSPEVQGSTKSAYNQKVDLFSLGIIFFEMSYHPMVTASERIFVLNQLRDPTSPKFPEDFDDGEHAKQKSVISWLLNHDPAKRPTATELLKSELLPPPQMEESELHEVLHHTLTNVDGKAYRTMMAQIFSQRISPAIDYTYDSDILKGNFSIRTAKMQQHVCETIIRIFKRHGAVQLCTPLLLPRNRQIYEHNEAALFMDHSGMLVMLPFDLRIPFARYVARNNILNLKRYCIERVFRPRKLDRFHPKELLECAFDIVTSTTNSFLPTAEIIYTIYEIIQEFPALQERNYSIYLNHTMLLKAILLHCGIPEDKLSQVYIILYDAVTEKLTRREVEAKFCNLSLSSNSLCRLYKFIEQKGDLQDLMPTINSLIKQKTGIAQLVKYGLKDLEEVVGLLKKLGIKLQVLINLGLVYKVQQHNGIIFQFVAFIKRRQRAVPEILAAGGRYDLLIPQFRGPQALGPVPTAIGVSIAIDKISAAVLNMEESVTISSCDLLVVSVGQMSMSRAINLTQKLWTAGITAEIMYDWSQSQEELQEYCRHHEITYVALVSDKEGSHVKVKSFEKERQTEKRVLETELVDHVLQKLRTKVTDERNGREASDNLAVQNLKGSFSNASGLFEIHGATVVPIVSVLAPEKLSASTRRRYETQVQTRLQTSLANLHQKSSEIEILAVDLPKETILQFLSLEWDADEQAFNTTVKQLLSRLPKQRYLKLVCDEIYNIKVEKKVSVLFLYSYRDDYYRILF

phosphorylated GCN2 = molecular target: T1, phosphorylated GCN2 (Homo sapiens, UniProt Q9P2K8); experiment: Inhibition of phosphorylated GCN2 under amino acid deficiency in HT-1080 cells, Western blot; type: cell-based; conditions: compound 50 nM, 24 hours; for Phospho-GCN2 inhibition: symbols ◯ / X not defined
T1 construct: endogenous in cells; host or cells: HT-1080
T1 sequence (Q9P2K8 whole entry): as above
Experimental: <Experimental Example 5> Evaluation of Inhibitory Efficacy of ISR-Related Kinase GCN2 Under Amino Acid Deficiency Condition Using Western Blot
HT-1080 cells, a human fibrosarcoma cell line, were cultured in RPMI-1640 medium supplemented with 10% FBS, penicillin (penicillin; 100 IU/ml), and streptomycin (streptomycin; 100 μg/ml). Cells (1×10^6 cells/ml) were seeded onto 100 mm plates (polypropylene tissue culture plate) and incubated for 24 hours in a 37° C., 5% CO2 incubator before being used for experiments.
The following method was used to achieve amino acid deficiency conditions in cells. After 24 hours of cell culture, the cells were cultured in amino acids and L-glutamine-free RPMI-1640 medium supplemented with 10% FBS, penicillin (100 IU/ml), and streptomycin (100 μg/ml). After 24 hours of cell culture in RPMI-1640 without amino acids and L-glutamine, the compound prepared at a concentration of 50 nM was dispensed onto each plate and cultured for 24 hours in a 37° C., 5% CO2 incubator.
In order to measure the signal transduction inhibitory efficacy of GCN among the ISR-related kinases according to the present invention, the following experiment was performed using SDS-PAGE. The fibrosarcoma cell line HT-1080 cells cultured on plates as described above were washed with PBS after removing the culture medium. After removing PBS, the cells were lysed by adding a radio-immunoprecipitation assay buffer (RIPA buffer) containing 50 mM Tris (pH 7.4), 150 mM NaCl, 1% NP-40, 0.5% sodium deoxycholate, 2 mM sodium fluoride, 2 mM EDTA, 0.1% SDS, and a protease/phosphatase inhibitor cocktail to the plate. After centrifugation at 4° C., 13,000×g for 15 minutes, the protein in the upper layer was collected, and the protein concentration was measured at 562 nm using BCA (bicinchoninc acid) reagent, and the amount of protein in all samples was prepared at 20-50 μg.
After making the total volume the same using the sample buffer and RIPA buffer, it was heated at 97° C. for 5 minutes. Then, electrophoresis was performed on 8% or 12% SDS-PAGE at 80 V for 30 minutes and at 160 V for 1 hour and 30 minutes. After electrophoresis, the SDS-PAGE gel was transferred to an NC membrane (nitrocellulose membrane) at 90 V for 2 hours. The NC membrane was placed in TBST (tris buffer saline tween-20; 20 mM tris, 137 mM sodium chloride, 0.1% tween-20, pH 8.0) containing 5% non-fat skim milk, placed on a shaker, and reacted at room temperature for 1 hour.
Each primary antibody was diluted in TBST containing 5% non-fat skim milk, poured onto the NC membrane, and reacted at 4° C. for 24 hours. The membrane was washed three times for 10 minutes each with TBST. The secondary antibodies (anti-rabbit IgG and anti-mouse IgG labeled with horseradish peroxidase (HRP)) were diluted in TBST containing 5% non-fat skim milk and reacted with the membrane at room temperature for 1 hour. Upon completion of the reaction, the membrane was washed three times with TBST for 10 minutes each. Protein expression bands were detected by a chemiluminescence image analyzer (Image Quant LAS 500) after the ECL solution was reacted with the NC membrane.
GCN2, a key kinase of the integrated stress response (ISR), is phosphorylated in response to amino acid deficiency.

[2] = molecular target: recombinant human HRI protein (Homo sapiens, UniProt Q9BQI3); experiment: eIF2-alpha kinase heme-regulated inhibitor (HRI) inhibitory capacity, 33P-ATP filter assay; type: biochemical; conditions: 45 uM [gamma-33P-ATP], 40 minutes, room temperature
Chain of recombinant human HRI protein (Q9BQI3 whole entry): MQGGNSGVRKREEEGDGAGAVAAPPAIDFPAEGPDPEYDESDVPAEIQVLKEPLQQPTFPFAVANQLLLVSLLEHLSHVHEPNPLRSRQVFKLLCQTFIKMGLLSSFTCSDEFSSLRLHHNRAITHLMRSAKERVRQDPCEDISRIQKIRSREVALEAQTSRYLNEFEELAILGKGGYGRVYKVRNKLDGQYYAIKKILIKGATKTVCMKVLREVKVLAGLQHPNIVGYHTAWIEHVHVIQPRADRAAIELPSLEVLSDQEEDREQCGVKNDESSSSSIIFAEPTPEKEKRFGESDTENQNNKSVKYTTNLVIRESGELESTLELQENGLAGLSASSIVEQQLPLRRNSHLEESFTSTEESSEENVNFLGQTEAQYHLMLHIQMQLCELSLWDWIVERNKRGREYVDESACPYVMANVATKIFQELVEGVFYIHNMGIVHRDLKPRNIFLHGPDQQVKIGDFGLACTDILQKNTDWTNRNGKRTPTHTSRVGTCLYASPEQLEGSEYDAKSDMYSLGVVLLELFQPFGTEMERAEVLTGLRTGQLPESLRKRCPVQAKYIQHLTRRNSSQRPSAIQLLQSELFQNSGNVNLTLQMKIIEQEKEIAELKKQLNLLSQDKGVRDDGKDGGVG
Experimental: <Experimental Example 3> Evaluation of eIF2-Alpha Kinase Heme-Regulated Inhibitor (HRI) Inhibitory Capacity
A recombinant human HRI protein was mixed with the compound in a reaction solution (50 mM Tris/HCl pH 7.5, 0.04 mM EDTA, 300 uM RSRSRSRSRSRSRSR, 10 mM Magnesium acetate, 45 uM [gamma-33P-ATP]) and reacted at room temperature for 40 minutes. Then, the reaction was terminated by adding phosphoric acid (0.5%) to the reaction mixture, and […] of the reaction solution was dropped onto a P30 filter. The filter was washed four times in a 0.425% phosphoric acid solution for 4 minutes, then […] washed once more in methanol, dried, and the HRI activity was measured by scintillation counting. […] The compound was diluted by 1/3 from the highest concentration of 1 uM and treated with a total of 9 concentrations to evaluate the degree of inhibition.

[3] = molecular target: recombinant human PKR protein (Homo sapiens, UniProt P19525); experiment: Protein kinase R (PKR) inhibitory capacity, 33P-ATP filter assay; type: biochemical; conditions: 15 uM [gamma-33P-ATP], 40 minutes, room temperature
Chain of recombinant human PKR protein (P19525 whole entry): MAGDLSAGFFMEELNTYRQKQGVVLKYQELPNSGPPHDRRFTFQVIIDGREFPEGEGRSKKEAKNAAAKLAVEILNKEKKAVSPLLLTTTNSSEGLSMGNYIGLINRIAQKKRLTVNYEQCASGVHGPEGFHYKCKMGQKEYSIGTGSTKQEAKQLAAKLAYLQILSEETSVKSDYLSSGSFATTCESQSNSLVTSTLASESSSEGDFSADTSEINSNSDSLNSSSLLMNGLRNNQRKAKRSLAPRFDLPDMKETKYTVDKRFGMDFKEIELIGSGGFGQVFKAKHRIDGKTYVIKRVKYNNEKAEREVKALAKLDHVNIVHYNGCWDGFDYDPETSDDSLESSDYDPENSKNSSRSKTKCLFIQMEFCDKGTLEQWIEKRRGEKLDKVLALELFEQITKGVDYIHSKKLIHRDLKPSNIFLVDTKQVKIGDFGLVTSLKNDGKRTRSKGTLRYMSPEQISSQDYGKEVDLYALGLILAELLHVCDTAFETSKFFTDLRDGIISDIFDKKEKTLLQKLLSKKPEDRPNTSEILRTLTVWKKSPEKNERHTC
Experimental: <Experimental Example 4> Evaluation of Protein Kinase R (PKR) Inhibitory Capacity
A recombinant human PKR protein was mixed with the compound in a reaction solution (8 mM MOPS pH 7.0, 0.2 mM EDTA, 20 uM RSRSRSRSRSRSRSR, 10 mM Magnesium acetate, 15 uM [gamma-33P-ATP]) and reacted at room temperature for 40 minutes. Then, the reaction was terminated by adding phosphoric acid (0.5%) to the reaction mixture, and 10 ul of the reaction solution was dropped onto a P30 filter. The filter was washed four times in a 0.425% phosphoric acid solution for 4 minutes, then washed once more in methanol, dried, and the PKR activity was measured by scintillation counting. […] The compound was diluted by 1/3 from the highest concentration of 1 uM and treated with a total of 9 concentrations to evaluate the degree of inhibition.

IC50 [1] | inhibitory effect on the phosphorylated GCN2 (phosphorylated GCN2) | Phospho-GCN2 inhibition (phosphorylated GCN2) | IC50 [2] | IC50 [3] | SMILES
100 to 300 nM | excellent inhibitory effects | ◯ | < 100 nM | 300 to 1000 nM | COc1ncc(Cl)cc1S(=O)(=O)Nc1ccc(F)c(-n2c(=O)c3cnc(N)nc3n(C)c2=O)c1F [Example 44, N-(3-(7-amino-1-methyl-2,4-dioxo-1,4-dihydropyrimido[4,5-d]pyrimidin-3(2H)-yl)-2,4-difluorophenyl)-5-chloro-2-methoxypyridine-3-sulfonamide]
< 100 nM | excellent inhibitory effects | ◯ | 100 to 300 nM | 300 to 1000 nM | COc1ncc(Br)cc1S(=O)(=O)Nc1ccc(F)c(-n2c(=O)c3cnc(N)nc3n(C)c2=O)c1F [Example 46, N-(3-(7-amino-1-methyl-2,4-dioxo-1,4-dihydropyrimido[4,5-d]pyrimidin-3(2H)-yl)-2,4-difluorophenyl)-5-bromo-2-methoxypyridine-3-sulfonamide]

More lines, now with the values behind:

SMILES | IC50 [1] | inhibitory effect on the phosphorylated GCN2 (phosphorylated GCN2) | Phospho-GCN2 inhibition (phosphorylated GCN2) | IC50 [2] | IC50 [3]
CNc1ncc2c(=O)n(-c3c(F)ccc(NS(=O)(=O)c4cc(Cl)cnc4OC)c3F)ccc2n1 [Example 32, 5-chloro-N-(2,4-difluoro-3-(2-(methylamino)-5-oxopirido[4,3-d]pyrimidin-6(5H)-yl)phenyl)-2-methoxypyridine-3-sulfonamide] | < 100 nM | excellent inhibitory effect | ◯ | < 100 nM | > 1000 nM
COc1ncc(Cl)cc1S(=O)(=O)Nc1ccc(F)c(-n2cc(C(F)F)c3nc(N)ncc3c2=O)c1F [Example 22, N-(3-(2-amino-8-(difluoromethyl)-5-oxopirido[4,3-d]pyrimidin-6(5H)-yl)-2,4-difluorophenyl)-5-chloro-2-methoxypyridine-3-sulfonamide] | < 100 nM | excellent inhibitory effects | ◯ | < 100 nM | 300 to 1000 nM
Nc1ncc2c(=O)n(-c3c(F)ccc(NS(=O)(=O)c4cc(Cl)cnc4Cl)c3F)ccc2n1 [Example 27, N-(3-(2-amino-5-oxopirido[4,3-d]pyrimidin-6(5H)-yl)-2,4-difluorophenyl)-2,5-dichloropyridine-3-sulfonamide] | < 100 nM | excellent inhibitory effect | ◯ | < 100 nM | > 1000 nM
Nc1ncc2c(=O)n(-c3c(F)ccc(NS(=O)(=O)c4cccc5ccccc45)c3F)ccc2n1 [Example 29, N-(3-(2-amino-5-oxopirido[4,3-d]pyrimidin-6(5H)-yl)-2,4-difluorophenyl)naphthalene-1-sulfonamide] | < 100 nM | excellent inhibitory effects | ◯ | < 100 nM | 100 to 300 nM
